Where two headings read alike, the source gives them in different places. Ends that are not written are not given here. * marks the point of attachment. Biotin = O=C1N[C@H]2[C@H](CS[C@H]2CCCCC(=O)*)N1
What was measured:
[1] = tested on: sera from sheep free of infection with C. abortus
Source text: In the Applicant's experience at least two different forms of microtitration plates may be used. One form uses tresyl-activated dextran, which is applied to the polystyrene plate and forms a layer between the plate and the peptide (Gregorius et al., 1995). The commercially available plates (‘Aquabind™’) are produced by M&E, Denmark and marketed in the UK through Labsystems by Life Sciences. […] The second form of plate is one modified by coating with streptavidin. Such plates are commercially available e.g. Labsystems, Pierce and Warriner. […] The preferred microtitration plate types used to bind streptavidin are those modified to provide high protein binding e.g. Dynex Immulon 2, Greiner High Bind. To each well is added streptavidin in 150 μl volumes. The plates are incubated, preferably for 2 hours at 35-37° C., then the contents ejected and the plates washed 3 times with PBS buffer, pH 7.4 (Appendix). The plates are thoroughly dried and stored at 4° C. until required. Application of the peptide mixture is performed as follows:
The stock solutions (1 mg per ml) of the selected peptides are diluted in the same volume of carbonate-bicarbonate buffer, pH 9.6, to their optimum concentration. […] The peptide mixture solution is added in volumes of 150 μl per well. In a ‘controlled’ test, the peptide mixture is added to all wells in even numbered columns, while carbonate-bicarbonate buffer is added to all wells in odd-numbered columns in the same volume per well. In ‘screen’ tests, where control wells are not used for each sample, the peptide mixture is added to all 96 wells on the plate. The plates are incubated, preferably at 4° C. for 4 to 12 hours, then washed 4 times with PBS/Tween buffer (Appendix) and thoroughly dried, preferably for 4 hours in a fan-driven cabinet. The coated plates are placed in watertight bags with a desiccant, and the bags sealed and stored at 4° C. until required.
Two dilutions of standard serum are used. One, employed at a dilution of 1 in 1000, is used to indicate successful performance of the test (‘standard positive’). […] In the kits, the positive and cut-off standards are provided pre-diluted to working strength in a proprietary stabilisation buffer (Dako) which contains a preservative (ProClin 300; Supelco; used at 1 in 2000), and are not diluted further before addition to the test plate.
The test serum samples are diluted 1:100 in Serum Conjugate Diluent (Appendix). The test kits provide a Diluter plate, which has very low protein binding properties. By adding 15 μl of serum to 135 μl of Serum Conjugate Diluent on the Diluter plate, an initial 1 in 10 dilution is achieved. Transfer of 15 μl from the Diluter plate to 135 μl of Serum Conjugate Diluent dispensed into each well in the test plate enables a further dilution to 1 in 100 (from the original sample) on the test plate. […] Dilution of sera can also be performed, if preferred, in bijoux or tubes before their addition in 150 μl volumes to the Test plate.
Test and standard sera are incubated on the Test plate for 15 min at room temperature (˜20° C.), then 30 min at 37° C. Plate contents are then ejected and the plate washed 4 times with PBS/Tween (Appendix) and dried.
A probe to detect the presence of immunoglobulin, to which is conjugated an enzyme (the ‘conjugate’), is then added. Preferably, the probe constitutes Protein G (recombinant form, in which the moiety that binds to albumin has been eliminated; available from Sigma and Calbiochem) conjugated with horse radish peroxidase, but many forms of conjugate are available. These include, as probes, Protein A; and monoclonal or polyclonal antibodies against the immunoglobulins of the species providing the test sample.

antibodies to C. abortus = experiment: ELISA, serological reactivity of biotinylated peptides against serum dilutions (Tables 1 and 2); type: binding, sheep
Experimental: Application of the peptide mixture is performed as follows:
Two dilutions of standard serum are used.
The data illustrate that the length of compound has a major impact on serological reactivity.
Thus, substitutions within the core epitopes described in this invention are possible without too much loss in compound serological reactivity.

[2] = Solubilisation of compounds; type: physicochemical; details: water
Experimental: Each peptide is resuspended in the preferred solvent to a concentration of 1 mg per ml. This stock solution is dispensed in 500 μl volume aliquots in 1 ml bottles, labelled and stored at −85° C. or, less preferably, at −20° C.

[3] = PS (Positive Control Serum) 1/1000
[4] = PS (Positive Control Serum) 1/15000
[5] = serum of Animal No. 19, sheep free of infection with C. abortus
[6] = serum of Animal No. 28, sheep free of infection with C. abortus
[7] = serum of Animal No. 31, sheep free of infection with C. abortus
[8] = serum of Animal No. 36, sheep free of infection with C. abortus
[9] = serum of Animal No. 37, sheep free of infection with C. abortus
[10] = serum of Animal No. 13, sheep free of infection with C. abortus
[11] = serum of Animal No. 14, sheep free of infection with C. abortus

| Substance | Net OD [Gross OD - No compound OD] [1, 3] | Net OD [Gross OD - No compound OD] [1, 4] | Net Optical Density (antibodies to C. abortus; serum dilution 1/100) | Net Optical Density (antibodies to C. abortus; serum dilution 1/200) | Net Optical Density (antibodies to C. abortus; serum dilution 1/400) | Net Optical Density (antibodies to C. abortus; serum dilution 1/800) | Net Optical Density (antibodies to C. abortus; serum dilution 1/1600) | Net Optical Density (antibodies to C. abortus; serum dilution 1/3200) | Net Optical Density (antibodies to C. abortus; serum dilution 1/6400) | other results |
| --- | --- | --- | --- | --- | --- | --- | --- | --- | --- | --- |
| Biotin-KTITGKKKKGTAAANYKTPTD [Compound 1-6] | 3.352 | 0.354 |  |  |  |  |  |  |  | Net OD [Gross OD - No compound OD] [1, 5]: 1.316; Net OD [Gross OD - No compound OD] [1, 6]: 0.114; Net OD [Gross OD - No compound OD] [1, 7]: 0.636; Net OD [Gross OD - No compound OD] [1, 8]: 0.500; Net OD [Gross OD - No compound OD] [1, 9]: 0.344 |
| Biotin-KASSAAFNLVGLIVKGSSIAADQ [Compound 2/L] | 1.534 | 0.098 | 2.629 | 1.885 | 1.107 | 0.544 | 0.263 | 0.115 | 0.056 | Net OD [Gross OD - No compound OD] ([1]; serum of Animal No. 5, sheep free of infection with C. abortus): 0.285; Net OD [Gross OD - No compound OD] [1, 10]: 0.572; Net OD [Gross OD - No compound OD] [1, 6]: 0.389; Net OD [Gross OD - No compound OD] [1, 8]: 0.128 |
| Biotin-KTITGKKVPTGTAAANYKTPT [Compound 1-5] | 3.744 | 0.452 |  |  |  |  |  |  |  | Net OD [Gross OD - No compound OD] [1, 11]: 0.978; Net OD [Gross OD - No compound OD] [1, 5]: 0.747; Net OD [Gross OD - No compound OD] [1, 6]: 0.352; Net OD [Gross OD - No compound OD] [1, 7]: 0.423; Net OD [Gross OD - No compound OD] [1, 9]: 0.580 |
| Biotin-KGSSIAAD [Compound 2-1] |  |  | 0.000 | 0.000 | 0.000 | 0.000 | 0.000 | 0.000 | 0.000 | reactivity (in words) (antibodies to C. abortus; studies of Table 1): no reactivity whatsoever |
| Biotin-KKKKKKKGVKGSSIAADQLPN [Compound 2-7] | 1.038 | 0.059 |  |  |  |  |  |  |  | Net OD [Gross OD - No compound OD] ([1]; serum of Animal No. 11, sheep free of infection with C. abortus): 0.607; Net OD [Gross OD - No compound OD] [1, 10]: 0.198; Net OD [Gross OD - No compound OD] [1, 5]: 0.119; Net OD [Gross OD - No compound OD] ([1]; serum of Animal No. 29, sheep free of infection with C. abortus): 0.144 |
| Biotin-KKKKKKGSSIAAD [Compound 2-2] |  |  | 1.515 | 0.786 | 0.385 | 0.174 | 0.068 | 0.046 | 0.024 | reactivity relative to that displayed by Compound 2-3 (antibodies to C. abortus; studies of Table 1): approximately 70% |
| Biotin-CLIGVKGSSAAD [Compound 2-4] |  |  | 2.173 | 1.241 | 0.572 | 0.278 | 0.133 | 0.064 | 0.040 |  |
| SGTAAANYKTKGTAAANYKT [Compound #1] |  |  |  |  |  |  |  |  |  | solubility [2]: soluble in water |
| Biotin-KTITGMGAVPTGTAAANYKT [Compound 1/AX] | 3.690 | 0.493 |  |  |  |  |  |  |  | Net OD [Gross OD - No compound OD] [1, 11]: 0.511 |
| GKGSSIAADQNKGSSIAADQ [Compound #2] |  |  |  |  |  |  |  |  |  | solubility [2]: soluble in water |
| Biotin-KKKKKGLIGVKGSS L AAD [Compound 2-11] |  |  | 2.008 | 1.230 | 0.637 | 0.299 | 0.133 | 0.053 | 0.026 | effect of substituting isoleucine with leucine within Epitope 2 on reactivity (antibodies to C. abortus; 2-9 compared with 2-3, 2-11 compared with 2-5): small decrease in reactivity |
